Data taken from patent publication US20250270619A1, “COMPOSITIONS, KITS AND METHODS FOR DIRECT AMPLIFICATION FROM CRUDE BIOLOGICAL SAMPLES” (LIFE TECHNOLOGIES CORPORATION, priority 2021, published 2025).

Tested on: SARS-Cov-2 virus particles
Assay: RT-qPCR screening of surfactant treatment solutions for disruption of SARS-CoV-2 virus particles
Details: for effect of heating the virus-surfactant mixture on Cq values (compatibility with RT-qPCR): then 92° C. for 5 minutes
[1] = Example 1, 2X concentration per surfactant, 30 minutes ambient, without heating
[2] = Example 2, surfactant 0.02-0.08%, absence of a heating step

Row | Compound | disruption of virus particles (Cq vs virus in Tris-EDTA buffer) [1] | effect of heating the virus-surfactant mixture on Cq values (compatibility with RT-qPCR) (Example 1, 30 minutes ambient) | also measured
1 | O=S(=O)([O-])CCC[n+]1ccccc1 [NDSB201] | ineffective at disrupting the virus particles |  | 
2 | Benzalkonium Chloride [BZK] | effective at disrupting the virus particles |  | effect on downstream RT-qPCR (Example 2, surfactant 0.08%): inhibitory to downstream RT-qPCR
3 | CCCCCCCCCCCC(=O)OCCOCCOCCOCCOCCOCCOCCOCCOCCOCCOCCOCCOCCOCCOCCOCCOCCOCCOCCOCCOCC(OCCOCCOCCOCCOCCOCCOCCOCCOCCOCCOCCOCCOCCOCCOCCOCCOCCOCCOCCOCCO)C1OCC(OCCOCCOCCOCCOCCOCCOCCOCCOCCOCCOCCOCCOCCOCCOCCOCCOCCOCCOCCOCCO)C1OCCOCCOCCOCCOCCOCCOCCOCCOCCOCCOCCOCCOCCOCCOCCOCCOCCOCCOCCOCCO (stereo not drawn) [Tween 20, polysorbate 20] | effective at disrupting the virus particles |  | 
4 | C[C@H](CCC(=O)NCCC[N+](C)(C)CC(O)CS(=O)(=O)[O-])[C@H]1CC[C@H]2[C@@H]3[C@H](O)C[C@@H]4C[C@H](O)CC[C@]4(C)[C@H]3C[C@H](O)[C@]12C (stereo partly drawn) [CHAPSO, 3-[(3-cholamidopropyl)dimethylammonio]-2-hydroxy-1-propanesulfonate] | ineffective at disrupting the virus particles | compatible with RT-qPCR | 
5 | CCCCCCCC/C=C\CCCCCCCC(=O)OCCOCC(OCCO)C1OCC(OCCO)C1OCCO (stereo not drawn) [Tween 80] | ineffective at disrupting the virus particles | compatible with RT-qPCR | 
6 | nonyl phenoxypolyethoxylethanol [NP-40 alternative] | effective at disrupting the virus particles |  | 
7 | CCCCCCCCCCCCCC[N+](C)(C)CCCS(=O)(=O)[O-] [Zwittergent 3-14, n-Tetradecyl-N,N-dimethyl-3-ammonio-1-propanesulfonate] | effective at disrupting the virus particles |  | disruption of virus particles (Cq vs virus in Tris-EDTA buffer) [2]: effective at disrupting the virus particles
8 | CCCCCCCCCCCC[N+](C)(C)CC.[Br-] [EDMAB, Dodecylethyldimethylammonium bromide] | ineffective at disrupting the virus particles | compatible with RT-qPCR | 
9 | CCCCCCCCCC[N+](C)(C)C.[Br-] [DeTAB] |  | compatible with RT-qPCR | 
10 | CCCCCCCCCC[N+](C)(C)CCCCCCCCCC.[Br-] [DDAB, Didecyldimethylammonium bromide] | effective at disrupting the virus particles | higher average Cq values | 
11 | CCCCCCCCCCCC[N+](C)(C)[O-] [LDAO, N,N Dimethydodecylamine-N-oxide] | effective at disrupting the virus particles |  | disruption of virus particles (Cq vs virus in Tris-EDTA buffer) [2]: effective at disrupting the virus particles; virus disruption vs incubation time (Example 3, 0.02% LDAO solution (2X), 0 to 60 minutes room temperature, no heating): rapidly disrupted the virus particles
12 | N-(Alkyl C10-C16)-N,N-dimethylglycine betaine [Empigen BB] | effective at disrupting the virus particles |  | 
13 | CCCCCCCCCCCC[N+](C)(C)C.[Br-] [DoTAB] | ineffective at disrupting the virus particles |  | 
